Data reported in patent publication US4908363A, “Imidazole derivatives” (Hoffmann-La Roche Inc., priority 1987, dated 1990).

Legend:
[1] = Inflammation-inhibiting activity in established Mycobacterium butyricum arthritis (paw volume, plasma fibrinogen, body weight); format: in vivo, male rats; conditions: by intubation each day over 7 days; for Paw volume change: vehicle 0.46 ± 0.08; for Body weight change: vehicle 13.2 ± 1.8; for Plasma Fibrinogen: vehicle 1233 ± 56
Protocol: Representative compounds of formula I were tested for their inflammation-inhibiting properties in the animal test described hereinafter:
0.1 ml of a 0.5% (weight/volume) suspension of heat-killed and dried Mycobacterium butyricum in heavy mineral oil, containing 0.2% digitionin, is injected into the base of the tail of male rats (120-140 g). The animals are housed individually and receive feed and water ad libitum. The thus-produced arthritis is allowed to develop without treatment during 21 days. Then on the one hand the body weight of the animals is determined and on the other hand the volumes of their two hind paws (by immersing the paws in a mercury plethysmograph up to the height of the lateral malleolus). Thereupon, the animals are divided into groups each comprising six animals in each case of approximately the same average volumes of the hind paws. The substance to be investigated is then administered to them by intubation each day over a period of 7 days. At the end of the treatment period, body weight and volumes of the hind paws are again determined and the changes over the treatment period is calculated. Subsequently, the animals are killed and plasma samples are removed from them in order to determine the fibrinogen in accordance with Exner et al., 1979 (Amer. J. Clin. Path.) after precipitation with ammonium sulfate.
The results determined for three representative compounds of formula I, in the animal test described hereinbefore, are set forth in the following Table I.

[2] = Acute toxicity, single oral administration; conditions: mouse, in vivo; single oral administration to mice
Text: The following Table II contains data concerning the acute toxicity of the above three compounds (LD50 in the case of single oral administration to mice).

[3] = Edema-inhibiting properties in carrageen pleuritis; format: in vivo, male rats; conditions: 1 hour before and 5 hours after carrageen, 24 hours
Protocol: were tested for their edema-inhibiting properties in the animal test described hereinafter:
A pleuritis is produced in male rats (230-250 g), which receive feed and water ad libitum, by the injection of 0.2 ml of a 1% solution of carrageen in sterile, pyrogen-free sodium chloride solution into the right pleural cavity. The substance to be investigated, suspended in an aqueous vehicle (containing 0.5% carboxymethylcellulose, 0.9% sodium chloride, 0.37% Tween 80 and 0.86% benzyl alcohol), or the vehicle alone, are administered by intubation to the animals 1 hour before and 5 hours after the carrageen injection. Twenty-four (24) hours after the carrageen injection, the animals are killed by decapitation, left to bleed out and the pleural cavity is exposed by cutting through the ribs on both sides of the sternum. The exudate is removed from the pleural cavity by means of a pipette and its volume is determined. Thereupon, the pleural cavity is washed once with phosphate-buffered sodium chloride solution containing fetal bovine serum (1:1) and the wash solution is combined with the exudate. The total number of cells in the pleural cavity is determined using a "Coulter Counter" which is calibrated so that red blood corpuscles are not counted. Cell smears on glass plates can be produced directly from the exudate, fixed in methanol and colored for the differential counting of polymorphonuclear leucocytes (PMN) and macrophages; a total of 200 PMN and macrophages can be counted and the results expressed as a percentage of each type of cell present in the pleural exudate.

Compound	Paw volume change ([1]; 22 μmol/kg)	Body weight change ([1]; 22 μmol/kg)	Plasma Fibrinogen ([1]; 22 μmol/kg)	Paw volume change ([1]; 66 μmol/kg)	Body weight change ([1]; 66 μmol/kg)	Plasma Fibrinogen ([1]; 66 μmol/kg)	LD50 [2]	% Chance compared with controls, Exudate volume ([3]; 30 mg/kg p.o.)	% Chance compared with controls, Number of cells ([3]; 30 mg/kg p.o.)	% Chance compared with controls, Exudate volume ([3]; 50 mg/kg p.o.)	% Chance compared with controls, Number of cells ([3]; 50 mg/kg p.o.)	% Chance compared with controls, Exudate volume ([3]; 100 mg/kg p.o.)	% Chance compared with controls, Number of cells ([3]; 100 mg/kg p.o.)
Cc1nccn1N=Cc1cc(C(C)(C)C)c(O)c(C(C)(C)C)c1 [B, 1-(4-hydroxy-3,5-di-tert.butylbenzylideneamino)-2-methylimidazole]	-0.77 ± 0.05 mL	28.2 ± 1.4 g	405 ± 126 mg/dL	-0.84 ± 0.12 mL	35.3 ± 1.8 g	75 ± 15 mg/dL	> 1000 mg/kg						
CC(C)(C)c1cc(C=Nn2ccnc2)cc(C(C)(C)C)c1O [C, 1-(4-hydroxy-3,5-di-tert.-butylbenzylideneamino)imidazole]				-0.92 ± 0.08 mL	31.2 ± 2.0 g	544 ± 97 mg/dL	> 1000 mg/kg						
CC(C)(C)c1cc(CNn2ccnc2)cc(C(C)(C)C)c1O [Compound A, 1-(4-Hydroxy-3,5-di-tert.butylbenzylamino)imidazole]				-0.18 ± 0.08 mL	30.5 ± 1.2 g	1040 ± 75 mg/dL	> 1000 mg/kg	-51%	-12%	-60%	-14%	-68%	-23%
Cc1nccn1NCc1cc(C(C)(C)C)c(O)c(C(C)(C)C)c1 [D, 1-(4-hydroxy-3,5-di-tert.-butylbenzylamino)-2-methylimidazole]								-29%	-6%			-60%	-22%
CCCc1nccn1NCc1cc(C(C)(C)C)c(O)c(C(C)(C)C)c1 [E, 1-(4-hydroxy-3,5-di-tert.butylbenzylamino)-2-propylimidazole]								-39%	+4%			-73%	-21%
